Columns and labels:
Experiment in all cases: β-D-ribosidase substrates in Columbia agar, colored or fluorescent colonies
[1] = system: Micrococcus luteus; assay type: cell-based
Experimental: [The procedure below names another organism; the source lists this organism under the same test.] (§1) The media hereinafter were prepared in 200 ml of a Columbia agar base (Oxoid), in combination with the chromogenic β-D-ribosidase substrates. The various substrates and also the concentrations and the additives used in the media are described in Table 1 below:
(§2) The β-D-ribosidase substrates are solubilized in DMSO and added to the media so as to obtain the concentrations indicated in Table 1.
(§3) 191 bacterial strains were inoculated onto each of the media using a suspension at 0.5 MacFarland diluted to 1/1000. The dishes were incubated at 37° C. and then read.
(§4) The media were distributed into Petri dishes, then inoculated with approximately 100 000 CFU, then incubated at 37° C. for 48 h. The colonies formed were examined visually after incubation times of 18, 24 and 48 hours.
(§5) The stock collection of 191 strains comprised: […], 48 Staphylococcus spp, 61 Enterococcus spp and 3 alpha-hemolytic Streptococcus.

[2] = system: S. aureus (MRSA); assay type: cell-based, Staphylococcus aureus
Experimental: as §1, §2, §3, §4, §5

[3] = system: S. aureus (MSSA); assay type: cell-based, Staphylococcus aureus
Experimental: as §1, §2, §3, §4, §5

[4] = system: Coagulase-negative Staphylococci; assay type: cell-based, Staphylococcus spp; conditions: Coagulase-negative Staphylococci
Experimental: as §1, §2, §3, §4, §5

[5] = system: Enterococci; assay type: cell-based, Enterococcus spp
Experimental: as §1, §2, §3, §4, §5

[6] = system: Alpha-hemolytic streptococci; assay type: cell-based, alpha-hemolytic Streptococcus
Experimental: as §1, §2, §3, §4, §5

[7] = 400 mg/L + ammoniacal iron citrate 100 mg/l, 18 h
[8] = 400 mg/L + ammoniacal iron citrate 100 mg/l, 24 h
[9] = 400 mg/L + ammoniacal iron citrate 100 mg/l, 48 h

In the case of “5-Bromo-6-chloro-3-indoxyl-beta-D-riboside [Magenta-β-riboside]”, the “% of strains producing colored or fluorescent colonies” value ([1]; 100 mg/L, 18 h) is reported as 0%, the “% of strains producing colored or fluorescent colonies” value ([1]; 100 mg/L, 24 h) is reported as 0% and the “% of strains producing colored or fluorescent colonies” value ([1]; 100 mg/L, 48 h) is reported as 0%. For the same compound, the “% of strains producing colored or fluorescent colonies” value ([2]; 100 mg/L, 18 h) was 71%, the “% of strains producing colored or fluorescent colonies” value ([2]; 100 mg/L, 24 h) was 85% and the “% of strains producing colored or fluorescent colonies” value ([2]; 100 mg/L, 48 h) was 95%. The “% of strains producing colored or fluorescent colonies” value ([3]; 100 mg/L, 18 h) was 64%, the “% of strains producing colored or fluorescent colonies” value ([3]; 100 mg/L, 24 h) was 64% and the “% of strains producing colored or fluorescent colonies” value ([3]; 100 mg/L, 48 h) was 100%. For the same compound, the “% of strains producing colored or fluorescent colonies” value ([4]; 100 mg/L, 18 h) was 0%, the “% of strains producing colored or fluorescent colonies” value ([4]; 100 mg/L, 24 h) was 3% and the “% of strains producing colored or fluorescent colonies” value ([4]; 100 mg/L, 48 h) was 6%. The “% of strains producing colored or fluorescent colonies” value ([5]; 100 mg/L, 18 h) was 0%, the “% of strains producing colored or fluorescent colonies” value ([5]; 100 mg/L, 24 h) was 2% and the “% of strains producing colored or fluorescent colonies” value ([5]; 100 mg/L, 48 h) was 2%. For the same compound, the “% of strains producing colored or fluorescent colonies” value ([6]; 100 mg/L, 18 h) was 0%, the “% of strains producing colored or fluorescent colonies” value ([6]; 100 mg/L, 24 h) was 0% and the “% of strains producing colored or fluorescent colonies” value ([6]; 100 mg/L, 48 h) was 0%.
For `Cc1cc(=O)oc2cc(O[C@@H]3O[C@H](CO)[C@@H](O)[C@H]3O)ccc12` [4-MU-β-riboside, 4-Methylumbelliferyl-beta-D-riboside], the “% of strains producing colored or fluorescent colonies” value ([1]; 50 mg/L, 18 h) was 0%, the “% of strains producing colored or fluorescent colonies” value ([1]; 50 mg/L, 24 h) was 0% and the “% of strains producing colored or fluorescent colonies” value ([1]; 50 mg/L, 48 h) was 0%. The “% of strains producing colored or fluorescent colonies” value ([2]; 50 mg/L, 18 h) was 97%, the “% of strains producing colored or fluorescent colonies” value ([2]; 50 mg/L, 24 h) was 97% and the “% of strains producing colored or fluorescent colonies” value ([2]; 50 mg/L, 48 h) was 97%. The “% of strains producing colored or fluorescent colonies” value ([3]; 50 mg/L, 18 h) was 100%, the “% of strains producing colored or fluorescent colonies” value ([3]; 50 mg/L, 24 h) was 100% and the “% of strains producing colored or fluorescent colonies” value ([3]; 50 mg/L, 48 h) was 100%. The “% of strains producing colored or fluorescent colonies” value ([4]; 50 mg/L, 18 h) was 82%, the “% of strains producing colored or fluorescent colonies” value ([4]; 50 mg/L, 24 h) was 82% and the “% of strains producing colored or fluorescent colonies” value ([4]; 50 mg/L, 48 h) was 82%. For the same compound, the “% of strains producing colored or fluorescent colonies” value ([5]; 50 mg/L, 18 h) was 57%, the “% of strains producing colored or fluorescent colonies” value ([5]; 50 mg/L, 24 h) was 57% and the “% of strains producing colored or fluorescent colonies” value ([5]; 50 mg/L, 48 h) was 49%. The “% of strains producing colored or fluorescent colonies” value ([6]; 50 mg/L, 18 h) was 0%, the “% of strains producing colored or fluorescent colonies” value ([6]; 50 mg/L, 24 h) was 0% and the “% of strains producing colored or fluorescent colonies” value ([6]; 50 mg/L, 48 h) was 0%.
With `OC[C@H]1O[C@@H](Oc2c[nH]c3cc(Cl)ccc23)[C@H](O)[C@@H]1O` [Pink-β-riboside, 6-Chloro-3-indoxyl-beta-D-riboside] the “% of strains producing colored or fluorescent colonies” value ([1]; 100 mg/L, 18 h) was 0%, the “% of strains producing colored or fluorescent colonies” value ([1]; 100 mg/L, 24 h) was 0% and the “% of strains producing colored or fluorescent colonies” value ([1]; 100 mg/L, 48 h) was 0%. For the same compound, the “% of strains producing colored or fluorescent colonies” value ([1]; 200 mg/L, 18 h) was 0%, the “% of strains producing colored or fluorescent colonies” value ([1]; 200 mg/L, 24 h) was 0% and the “% of strains producing colored or fluorescent colonies” value ([1]; 200 mg/L, 48 h) was 0%. The “% of strains producing colored or fluorescent colonies” value ([2]; 100 mg/L, 18 h) was 91%, the “% of strains producing colored or fluorescent colonies” value ([2]; 100 mg/L, 24 h) was 96% and the “% of strains producing colored or fluorescent colonies” value ([2]; 100 mg/L, 48 h) was 100%. For the same compound, the “% of strains producing colored or fluorescent colonies” value ([2]; 200 mg/L, 18 h) was 84%, the “% of strains producing colored or fluorescent colonies” value ([2]; 200 mg/L, 24 h) was 94% and the “% of strains producing colored or fluorescent colonies” value ([2]; 200 mg/L, 48 h) was 100%. For the same compound, the “% of strains producing colored or fluorescent colonies” value ([3]; 100 mg/L, 18 h) was 64%, the “% of strains producing colored or fluorescent colonies” value ([3]; 100 mg/L, 24 h) was 64% and the “% of strains producing colored or fluorescent colonies” value ([3]; 100 mg/L, 48 h) was 100%. The “% of strains producing colored or fluorescent colonies” value ([3]; 200 mg/L, 18 h) was 57%, the “% of strains producing colored or fluorescent colonies” value ([3]; 200 mg/L, 24 h) was 64% and the “% of strains producing colored or fluorescent colonies” value ([3]; 200 mg/L, 48 h) was 100%. The “% of strains producing colored or fluorescent colonies” value ([4]; 100 mg/L, 18 h) was 3%, the “% of strains producing colored or fluorescent colonies” value ([4]; 100 mg/L, 24 h) was 3% and the “% of strains producing colored or fluorescent colonies” value ([4]; 100 mg/L, 48 h) was 3%. For the same compound, the “% of strains producing colored or fluorescent colonies” value ([4]; 200 mg/L, 18 h) was 3%, the “% of strains producing colored or fluorescent colonies” value ([4]; 200 mg/L, 24 h) was 3% and the “% of strains producing colored or fluorescent colonies” value ([4]; 200 mg/L, 48 h) was 6%. The “% of strains producing colored or fluorescent colonies” value ([5]; 100 mg/L, 18 h) was 0%, the “% of strains producing colored or fluorescent colonies” value ([5]; 100 mg/L, 24 h) was 0% and the “% of strains producing colored or fluorescent colonies” value ([5]; 100 mg/L, 48 h) was 2%. The “% of strains producing colored or fluorescent colonies” value ([5]; 200 mg/L, 18 h) was 0%, the “% of strains producing colored or fluorescent colonies” value ([5]; 200 mg/L, 24 h) was 0% and the “% of strains producing colored or fluorescent colonies” value ([5]; 200 mg/L, 48 h) was 0%. The “% of strains producing colored or fluorescent colonies” value ([6]; 100 mg/L, 18 h) was 0%, the “% of strains producing colored or fluorescent colonies” value ([6]; 100 mg/L, 24 h) was 0% and the “% of strains producing colored or fluorescent colonies” value ([6]; 100 mg/L, 48 h) was 0%. For the same compound, the “% of strains producing colored or fluorescent colonies” value ([6]; 200 mg/L, 18 h) was 0%, the “% of strains producing colored or fluorescent colonies” value ([6]; 200 mg/L, 24 h) was 0% and the “% of strains producing colored or fluorescent colonies” value ([6]; 200 mg/L, 48 h) was 0%.
“Dihydroxyflavone-beta-D-riboside [DHF-β-riboside]” was tested, and the “% of strains producing colored or fluorescent colonies” value [1, 7] was 0%, the “% of strains producing colored or fluorescent colonies” value [1, 8] was 0% and the “% of strains producing colored or fluorescent colonies” value [1, 9] was 0%. The “% of strains producing colored or fluorescent colonies” value [2, 7] was 100%, the “% of strains producing colored or fluorescent colonies” value [2, 8] was 100% and the “% of strains producing colored or fluorescent colonies” value [2, 9] was 100%. The “% of strains producing colored or fluorescent colonies” value [3, 7] was 100%, the “% of strains producing colored or fluorescent colonies” value [3, 8] was 100% and the “% of strains producing colored or fluorescent colonies” value [3, 9] was 100%. For the same compound, the “% of strains producing colored or fluorescent colonies” value [4, 7] was 68%, the “% of strains producing colored or fluorescent colonies” value [4, 8] was 68% and the “% of strains producing colored or fluorescent colonies” value [4, 9] was 91%. The “% of strains producing colored or fluorescent colonies” value [5, 7] was 30%, the “% of strains producing colored or fluorescent colonies” value [5, 8] was 30% and the “% of strains producing colored or fluorescent colonies” value [5, 9] was 48%. The “% of strains producing colored or fluorescent colonies” value [6, 7] was 0%, the “% of strains producing colored or fluorescent colonies” value [6, 8] was 0% and the “% of strains producing colored or fluorescent colonies” value [6, 9] was 0%.

Source: patent US20100297692A1, “REACTION MEDIUM FOR DETECTING AND/OR IDENTTIFYING STAPHYLOCCOUS AUREUS” (BIOMERIEUX, priority 2007, published 2010)
